Patent US9011882B2, “Dimethylarginine dimethylaminohydrolase inhibitors and methods of use thereof” (The Board of Trustees of the Leland Stanford Junior …, priority 2012, dated 2015)

Legend:
[1] = system: human microvascular endothelial cells (HMEC-1); assay: Intracellular ADMA by ELISA in endothelial cells; format: cell-based; conditions: 20 μM, 24 hours, compared to vehicle control
Experimental: (§1) First, human microvascular endothelial cells (HMEC-1; ATCC) were seeded in 75 cm^2 cell culture flasks and cultured in fully supplemented DMEM (Invitrogen cat #11995; supplemented with 10% fetal bovine serum (FBS), 4 mM HEPES; GIBCO 15630 and penicillin/streptomycin). The cells were incubated at 37° C./5% CO2 until ˜60% confluency. The cells were then washed with phosphate buffered saline (PBS) and plain DMEM (DMEM with no addition of serum or the other supplements) was mixed with esomeprazole (20 μM final concentration from 100 mM stock) and added to the cells. […] After ˜4 hrs of incubation, the media was aspirated from each flask and the cells were cultured in fully supplemented DMEM as described above and incubated at 37° C./5% CO2 for another 20 hrs. The serum was initially withdrawn due to the possibility that esomeprazole would interact with Cys containing serum proteins and fail to internalize at effective concentrations.
After 24 hrs, the cells were harvested. Total cellular protein was estimated as described and ADMA was measured by enzyme-linked immunosorbent assay (ELISA) following the manufacturer's recommendations; DLD Diagnostika, Hamburg, Germany).
as §1, with “FBS,” for “fetal bovine serum (FBS),”, “PBS” for “phosphate buffered saline (PBS)”, “PD 404” for “esomeprazole”, “conc” for “concentration”, “The serum was initially withdrawn due to the possibility that esomeprazole would interact with Cys containing serum proteins and fail to internalize at effective concentrations.” left out
After 24 hours, the cells were harvested. Total cellular protein was estimated as described and ADMA was measured by ELISA following the manufacturer's recommendations; DLD Diagnostika, Hamburg, Germany).

[2] = system: mouse alveolar epithelial cell; assay: BrdU Cell Proliferation Assay, mouse alveolar epithelial cells; format: cell-based; conditions: mouse cell line, FIG. 25
Excerpt: A “vehicle only” sample served as a “no DDAH” control.

[3] = system: Human lung epithelial cell line (A-549); assay: BrdU Cell Proliferation Assay, human alveolar epithelial cells; format: cell-based; conditions: FIG. 24
Experimental: (§2) Cells were seeded at 5×10^3 cells/well in a 96-well plate (200 μL media per well) & incubated overnight at 37° C./5% CO2. The next day, the conditioned media was aspirated and the cells were PBS-rinsed prior to (fetal bovine) serum starving them for 2 hours followed by 22 hours low serum (0.1% FBS) in order to synchronize them.
On day-3, 2 hours before the end of the 24 hours low serum period, DDAH inhibitors (Proton pump inhibitors; PPIs) were added in a 100 μL solution of 0.1% FBS DMEM. The following DDAH inhibitors were used: Lansoprazole; Esomeprazole; and Rabeprazole. A “vehicle only” sample served as a “no DDAH” control. In addition, Media only (blank control) without cells, and Cells only (background control) were included in the assay. Two hours later, 100 μL of DMEM containing 10% FBS was added to each well in order to serum-stimulate (for 24 hours) the cells and make the total well content to 200 μL. Four hours prior to the end of the 24 hrs, 20 μL of 1:500 diluted Bromodeoxyuridine (BrdU) (diluted in fully-supplemented DMEM) was added to all wells except the “Cells only” control wells.
The incorporation of BrdU into newly synthesized DNA by actively proliferating cells was detected immunochemically using an Antibody directed against BrdU using the recommended protocol and the BrdU Cell Proliferation Assay kit (Millipore; Cat #2750). […]

[4] = system: Lung fibroblasts from patients with IPF; assay: Sircol collagen assay, TGF-β stimulated IPF lung fibroblasts; format: cell-based, human; conditions: Omeprazole 50 or 100 μM; L-257 50 μM; A83-01 20 μM; 24 hours
Experimental: as §2, with “4×10^4” for “5×10^3”, “6-well” for “96-well”, “(1.2 mL” for “(200 μL”, “and” for “&”, “rinsed with phosphate-buffered saline (PBS)” for “PBS-rinsed”, “(0.1% fetal bovine serum;” for “(0.1%”
On day-3, the cells were stimulated with fully-supplemented media (containing 10% FBS) in the absence or presence of recombinant transforming growth factor-1 (TGF-β1) (at 10 ng/mL final conc) in the presence of a DDAH inhibitor (DDAHi; the proton pump inhibitor (PPI) lansoprazole at a final concentration of 20 μM) or vehicle for 24 hours.
The acid-soluble collagen content in each well was determined in the conditioned media using the Sircol collagen assay (Accurate Chemical and Scientific Corp; CLRS 1000) following the recommended protocol.
The amount of collagen in each well was estimated from a standard curve and the collagen content in each sample was normalized to total cellular protein from the respective well and was expressed as μg collagen per milligram of protein.
Lung fibroblasts were isolated from patients diagnosed with IPF according to International Standards. Isolated fibroblasts were seeded at 6×10^4 and synchronized the following day.
The acid-soluble collagen content was determined using the Sircol collagen assay (Accurate Chemical and Scientific Corp; CLRS 1000) following the recommended protocol.

[5] = system: human lung epithelial cells (A-549); assay: Intracellular ADMA by ELISA in lung epithelial cells; format: cell-based; conditions: Omeprazole at 10, 20, 50 or 100 μM, 24 hours
Experimental: After 24 hours, ADMA was measured by enzyme-linked immunosorbent assay (ELISA). […] Data are Mean±SEM from duplicate experiments. *p<0.05 compared to vehicle (“Veh”).

[6] = target: T1, human DDAH1 (Homo sapiens (Human), UniProt O94760); assay: Fluorimetric CPM assay of DDAH activity (SMTC substrate); format: biochemical; conditions: for inhibition of DDAH activity, CPM fluorometric validation: fresh powders from vendors, vs vehicle
T1 sequence (O94760 whole entry): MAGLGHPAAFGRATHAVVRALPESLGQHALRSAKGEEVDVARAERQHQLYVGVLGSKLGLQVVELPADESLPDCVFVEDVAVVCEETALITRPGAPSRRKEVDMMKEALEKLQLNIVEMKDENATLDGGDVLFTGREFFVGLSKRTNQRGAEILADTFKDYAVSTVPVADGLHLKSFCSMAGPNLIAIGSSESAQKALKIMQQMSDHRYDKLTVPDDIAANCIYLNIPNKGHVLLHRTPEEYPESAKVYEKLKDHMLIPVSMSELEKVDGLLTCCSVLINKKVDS
Experimental: (§3) The activity of human DDAH1 was quantified using fluorimetric assay by incubating the enzyme with an artificial substrate S-methyl-thiocitrulline (SMTC). DDAH metabolizes SMTC into L-citrulline and methanethiol (CH3—SH). The thiol released from the reaction can be monitored fluorimetrically by adding 7-Diethylamino-3-(4-maleimidophenyl)-4-methylcoumarin (CPM).
as §3, with “(SMTC), as described in Example 1.” for “(SMTC).”
For the secondary assay, a fluorimetric assay that uses SMTC as a substrate was adapted. DDAH metabolizes SMTC into L-citrulline and methanethiol (CH3—SH). In brief, DDAH (30 nM final concentration) was mixed with SMTC (100 μM final concentration), CPM (50 μM final concentration) and screening buffer (containing a final concentration of 0.01% Triton-X100 and 1 mM EDTA). The reaction mix was added to black 384-well plates to validate primary hits that modulate DDAH activity. The release of CH3—SH was monitored fluorimetrically by adding 7-Diethylamino-3-(4-maleimidophenyl)-4-methylcoumarin (CPM) as described in Linsky (Linsky, T. & Fast, W. A continuous, fluorescent, high-throughput assay for human dimethylarginine dimethylaminohydrolase-1. J Biomol Screen 16, 1089-1097 (2011)).

[7] = system: human alveolar epithelial cells (A-549); assay: Apoptosis, Cell Death Detection ELISA, A23187-induced; format: cell-based; conditions: 1 μM A23187, 24 hours
Experimental: Apoptosis as measured by mono- and oligo-nucleosome enrichment was determined using Cell Death Detection ELISA^PLUS (Roche). Histone-DNA complex (His-DNA CPx) was included as a control. […] Data shown are Mean+/-SEM from Duplicate Experiments. * p<0.05.

[8] = system: mouse alveolar epithelial (MLE-12) cells
Excerpt: (§4) Cytotoxicity of PPIs. […] Mean+/−SEM from Duplicate Experiments. * p<0.05.

[9] = system: human alveolar epithelial cells (A-549)
Excerpt: as §4

[10] = target: DDAH (Homo sapiens (Human), UniProt O94760); assay: Dilution assay for reversibility of DDAH inhibition (fluorometric); format: biochemical
DDAH, sequence (O94760 whole entry): as above
Experimental: In order to understand the mechanism by which PPIs inhibit DDAH activity and to determine whether the inhibition mechanism is reversible, a dilution study was conducted, in which DDAH (at a 100-fold excess to the final concentration used) was pre-incubated with excess PPI (100×, 10× or 1× the IC50 value) and then inhibition of enzymatic activity was determined using a fluorometric assay as described above. For a reversible inhibitor that binds to a single site of an enzyme (1:1 stoichiometry), it is anticipated that inhibition can be saturated.

[11] = system: human alveolar epithelial cells (A-549); assay: Nitric oxide production, total nitrite (NOx) by Griess reaction; format: cell-based; conditions: 24 hours
Experimental: Total nitrite (NOx) was measured using Griess reaction. Data are Mean±SEM from duplicate experiments. *p<0.05.

[12] = target: T1, human DDAH1; assay: Time-dependence kinetics study of DDAH inhibition; format: biochemical

Compound: COCCNC(N)=NCCC[C@H](N)C(=O)O [L-257]
- increase in intracellular ADMA [1]: 68%
- incorporation of BrdU [2]: reduced incorporation of BrdU
- incorporation of BrdU [3]: reduced incorporation of BrdU
- TGF-β induced collagen synthesis [4]: reduced TGF-β induced collagen synthesis

Compound: Cc1cccc(-c2nn(C(=S)Nc3ccccc3)cc2-c2ccnc3ccccc23)n1 [A83-01]
- TGF-β induced collagen synthesis [4]: reduced TGF-β induced collagen synthesis

Compound: COc1ccc2[nH]c([S+]([O-])Cc3ncc(C)c(OC)c3C)nc2c1 (centres unmarked) [Omeprazole]
- intracellular ADMA [5]: increase in intracellular ADMA
- inhibition of DDAH activity, CPM fluorometric validation [6]: inhibited DDAH activity significantly
- incorporation of BrdU [2]: reduced incorporation of BrdU
- level of apoptosis (mono- and oligo-nucleosome enrichment) [7]: reduced the level of apoptosis
- incorporation of BrdU [3]: reduced incorporation of BrdU
- concentration up to which cytotoxicity not observed (LDH release) [8]: ≥ 300 µM
- concentration up to which not cytotoxic (LDH release) [9]: ≥ 300 µM
- reversibility of DDAH inhibition upon dilution ([10]; pre-incubation with 100×, 10× or 1× the IC50 value): reversible inhibition of DDAH
- IC50 ([10]; value given in FIG. 20 legend): ~60 µM
- TGF-β induced collagen synthesis [4]: reduced TGF-β induced collagen synthesis
- levels of nitric oxide (total nitrite, NOx) [11]: reduced the levels of nitric oxide

Compound: CC(=O)[O-].[Hg+][c]1ccccc1 [phenylmercuric acetate]
- IC50 [6]: < 0.78 µM
- mode of inhibition in time-dependence kinetics [12]: progressive inhibition

Compound: O=C(O)c1cc[c]([Hg][Cl])cc1 [chloromercuribenzoate, 4-chloromercuribenzoic acid, reference compound]
- inhibition of DDAH activity, CPM fluorometric validation [6]: confirmed known DDAH inhibitors
- mode of inhibition in time-dependence kinetics [12]: progressive inhibition
